Source: ChEMBL document CHEMBL2331421, “Amino acid derived quinazolines as Rock/PKA inhibitors” (Bioorg Med Chem Lett, 2013)
pIC50: −log10 of the molar value.

Legend:
[1] = target: Mitogen-activated protein kinase 8 (Homo sapiens, UniProt P45983); assay: Inhibition of JNK1 (unknown origin)
[2] = target: CYP2C9 (Homo sapiens, UniProt P11712); assay: Inhibition of CYP2C9 (unknown origin) at 10 uM relative to control; assay type: ADME
[3] = target: CYP3A4 (Homo sapiens, UniProt P08684); assay: Inhibition of CYP3A4 (unknown origin) at 10 uM relative to control; assay type: ADME
[4] = Half life in human liver microsomes; assay type: ADME, Microsome
[5] = target: Rho-associated protein kinase 2 (Homo sapiens, UniProt O75116); assay: Inhibition of human recombinant 6-His-tagged ROCK2 expressed in baculovirus-infected Sf9 cells using LCB-AKRRRLSSLRA-NH2 as substrate after 25 mins by TR-FRET assay
[6] = target: Serine/threonine-protein kinase MRCK alpha (Homo sapiens, UniProt Q5VT25); assay: Inhibition of MRCKalpha (unknown origin)
[7] = target: Mitogen-activated protein kinase 10 (Homo sapiens, UniProt P53779); assay: Inhibition of JNK3 (unknown origin)
[8] = target: T1, CYP1A2 (Homo sapiens, UniProt P05177); assay: Inhibition of CYP1A2 (unknown origin) at 10 uM relative to control; assay type: ADME
T1 sequence (P05177 whole entry): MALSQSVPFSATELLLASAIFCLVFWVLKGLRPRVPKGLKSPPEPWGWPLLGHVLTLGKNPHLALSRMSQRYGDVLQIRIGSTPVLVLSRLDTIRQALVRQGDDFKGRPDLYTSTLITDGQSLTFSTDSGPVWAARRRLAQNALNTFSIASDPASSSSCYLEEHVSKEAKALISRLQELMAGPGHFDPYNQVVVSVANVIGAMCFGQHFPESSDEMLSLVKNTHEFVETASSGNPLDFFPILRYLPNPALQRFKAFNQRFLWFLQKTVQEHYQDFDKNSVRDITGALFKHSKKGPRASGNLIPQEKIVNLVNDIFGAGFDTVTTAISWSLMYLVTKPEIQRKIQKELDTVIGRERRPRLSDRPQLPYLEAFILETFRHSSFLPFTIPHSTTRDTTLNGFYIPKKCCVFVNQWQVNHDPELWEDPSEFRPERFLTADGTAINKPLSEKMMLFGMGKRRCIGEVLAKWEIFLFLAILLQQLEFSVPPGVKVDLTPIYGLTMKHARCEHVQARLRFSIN

[9] = target: Rho-associated protein kinase 1 (Homo sapiens, UniProt Q13464); assay: Inhibition of ROCK1 (unknown origin)
[10] = target: CYP2D6 (Homo sapiens, UniProt P10635); assay: Inhibition of CYP2D6 (unknown origin) at 10 uM relative to control; assay type: ADME
[11] = Inhibition of PKA (unknown origin); set-up: species or system Homo sapiens
[12] = Inhibition of ROCK in rat A7r5 cells assessed as inhibition of myosin light chain bisphosphorylation by Western blot analysis; assay type: cell-based
[13] = target: Mitogen-activated protein kinase 14 (Homo sapiens, UniProt Q16539); assay: Inhibition of p38alpha (unknown origin)
[14] = target: Mitogen-activated protein kinase 9 (Homo sapiens, UniProt P45984); assay: Inhibition of JNK2 (unknown origin)
Chain of Mitogen-activated protein kinase 9 (P45984 whole entry): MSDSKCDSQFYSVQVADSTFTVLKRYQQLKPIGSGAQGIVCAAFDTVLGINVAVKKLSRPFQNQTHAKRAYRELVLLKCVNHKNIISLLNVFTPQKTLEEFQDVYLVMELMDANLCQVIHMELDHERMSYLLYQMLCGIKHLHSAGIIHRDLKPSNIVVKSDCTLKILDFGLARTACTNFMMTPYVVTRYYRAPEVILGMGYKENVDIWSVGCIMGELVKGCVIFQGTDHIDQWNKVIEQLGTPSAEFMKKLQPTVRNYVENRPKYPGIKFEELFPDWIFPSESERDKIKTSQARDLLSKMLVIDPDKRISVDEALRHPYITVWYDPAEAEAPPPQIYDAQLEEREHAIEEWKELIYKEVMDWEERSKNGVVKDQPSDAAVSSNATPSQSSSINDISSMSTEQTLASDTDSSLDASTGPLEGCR

Chain of Mitogen-activated protein kinase 10 (P53779 whole entry): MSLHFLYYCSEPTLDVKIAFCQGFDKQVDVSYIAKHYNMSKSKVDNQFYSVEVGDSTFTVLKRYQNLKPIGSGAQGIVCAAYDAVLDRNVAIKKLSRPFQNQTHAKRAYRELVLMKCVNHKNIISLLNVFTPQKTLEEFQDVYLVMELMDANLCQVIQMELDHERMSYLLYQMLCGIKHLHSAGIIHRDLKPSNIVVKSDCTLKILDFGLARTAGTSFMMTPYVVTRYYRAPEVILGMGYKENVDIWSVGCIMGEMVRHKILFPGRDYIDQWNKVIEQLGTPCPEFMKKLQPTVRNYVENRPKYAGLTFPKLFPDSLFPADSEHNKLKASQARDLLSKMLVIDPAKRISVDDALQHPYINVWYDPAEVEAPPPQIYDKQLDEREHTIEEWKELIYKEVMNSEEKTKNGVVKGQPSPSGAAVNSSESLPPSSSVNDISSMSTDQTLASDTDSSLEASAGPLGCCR
Chain of Serine/threonine-protein kinase MRCK alpha (Q5VT25 whole entry): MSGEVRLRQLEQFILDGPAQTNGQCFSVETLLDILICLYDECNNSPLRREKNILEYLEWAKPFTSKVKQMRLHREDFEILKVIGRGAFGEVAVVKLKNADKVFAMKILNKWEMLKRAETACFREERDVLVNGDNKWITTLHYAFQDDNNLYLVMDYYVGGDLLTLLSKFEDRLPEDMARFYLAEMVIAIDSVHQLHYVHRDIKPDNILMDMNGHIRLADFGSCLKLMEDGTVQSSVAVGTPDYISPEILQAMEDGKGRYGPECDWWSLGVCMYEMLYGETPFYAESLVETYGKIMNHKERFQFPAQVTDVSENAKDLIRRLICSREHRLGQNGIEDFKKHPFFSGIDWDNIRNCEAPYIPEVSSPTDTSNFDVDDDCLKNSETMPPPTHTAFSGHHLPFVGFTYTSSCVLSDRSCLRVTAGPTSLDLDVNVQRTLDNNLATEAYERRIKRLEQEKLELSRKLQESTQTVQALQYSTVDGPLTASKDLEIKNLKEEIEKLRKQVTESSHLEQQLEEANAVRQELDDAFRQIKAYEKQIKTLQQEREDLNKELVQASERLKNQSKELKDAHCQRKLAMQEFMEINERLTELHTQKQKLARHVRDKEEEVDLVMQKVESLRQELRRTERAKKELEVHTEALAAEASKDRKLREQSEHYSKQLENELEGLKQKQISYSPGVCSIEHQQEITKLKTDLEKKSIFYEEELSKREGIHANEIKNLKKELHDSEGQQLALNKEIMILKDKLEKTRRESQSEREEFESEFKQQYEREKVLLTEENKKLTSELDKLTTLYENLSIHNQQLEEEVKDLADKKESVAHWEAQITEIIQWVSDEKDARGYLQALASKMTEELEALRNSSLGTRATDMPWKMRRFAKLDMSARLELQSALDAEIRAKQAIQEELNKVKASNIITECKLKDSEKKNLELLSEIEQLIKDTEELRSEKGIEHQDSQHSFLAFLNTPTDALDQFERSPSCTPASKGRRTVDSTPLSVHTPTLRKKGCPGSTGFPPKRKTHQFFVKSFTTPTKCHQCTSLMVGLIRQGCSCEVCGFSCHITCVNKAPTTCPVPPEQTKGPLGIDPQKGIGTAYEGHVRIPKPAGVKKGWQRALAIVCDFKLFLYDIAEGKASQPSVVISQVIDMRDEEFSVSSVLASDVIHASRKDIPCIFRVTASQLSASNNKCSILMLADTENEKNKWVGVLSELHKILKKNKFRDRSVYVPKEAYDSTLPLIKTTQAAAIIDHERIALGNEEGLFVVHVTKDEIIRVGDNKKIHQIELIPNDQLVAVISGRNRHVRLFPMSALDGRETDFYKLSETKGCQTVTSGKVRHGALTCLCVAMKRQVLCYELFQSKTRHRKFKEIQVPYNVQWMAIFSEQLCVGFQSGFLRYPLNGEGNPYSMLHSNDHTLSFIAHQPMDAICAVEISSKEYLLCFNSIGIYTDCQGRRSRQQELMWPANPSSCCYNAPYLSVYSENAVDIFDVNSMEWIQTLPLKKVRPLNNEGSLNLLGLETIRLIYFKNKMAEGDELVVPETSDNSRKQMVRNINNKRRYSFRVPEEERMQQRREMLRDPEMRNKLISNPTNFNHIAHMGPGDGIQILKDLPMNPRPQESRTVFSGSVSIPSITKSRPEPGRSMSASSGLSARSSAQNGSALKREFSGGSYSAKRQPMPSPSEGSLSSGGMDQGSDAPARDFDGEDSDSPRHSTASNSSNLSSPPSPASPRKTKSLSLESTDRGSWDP
Chain of Rho-associated protein kinase 2 (O75116 whole entry): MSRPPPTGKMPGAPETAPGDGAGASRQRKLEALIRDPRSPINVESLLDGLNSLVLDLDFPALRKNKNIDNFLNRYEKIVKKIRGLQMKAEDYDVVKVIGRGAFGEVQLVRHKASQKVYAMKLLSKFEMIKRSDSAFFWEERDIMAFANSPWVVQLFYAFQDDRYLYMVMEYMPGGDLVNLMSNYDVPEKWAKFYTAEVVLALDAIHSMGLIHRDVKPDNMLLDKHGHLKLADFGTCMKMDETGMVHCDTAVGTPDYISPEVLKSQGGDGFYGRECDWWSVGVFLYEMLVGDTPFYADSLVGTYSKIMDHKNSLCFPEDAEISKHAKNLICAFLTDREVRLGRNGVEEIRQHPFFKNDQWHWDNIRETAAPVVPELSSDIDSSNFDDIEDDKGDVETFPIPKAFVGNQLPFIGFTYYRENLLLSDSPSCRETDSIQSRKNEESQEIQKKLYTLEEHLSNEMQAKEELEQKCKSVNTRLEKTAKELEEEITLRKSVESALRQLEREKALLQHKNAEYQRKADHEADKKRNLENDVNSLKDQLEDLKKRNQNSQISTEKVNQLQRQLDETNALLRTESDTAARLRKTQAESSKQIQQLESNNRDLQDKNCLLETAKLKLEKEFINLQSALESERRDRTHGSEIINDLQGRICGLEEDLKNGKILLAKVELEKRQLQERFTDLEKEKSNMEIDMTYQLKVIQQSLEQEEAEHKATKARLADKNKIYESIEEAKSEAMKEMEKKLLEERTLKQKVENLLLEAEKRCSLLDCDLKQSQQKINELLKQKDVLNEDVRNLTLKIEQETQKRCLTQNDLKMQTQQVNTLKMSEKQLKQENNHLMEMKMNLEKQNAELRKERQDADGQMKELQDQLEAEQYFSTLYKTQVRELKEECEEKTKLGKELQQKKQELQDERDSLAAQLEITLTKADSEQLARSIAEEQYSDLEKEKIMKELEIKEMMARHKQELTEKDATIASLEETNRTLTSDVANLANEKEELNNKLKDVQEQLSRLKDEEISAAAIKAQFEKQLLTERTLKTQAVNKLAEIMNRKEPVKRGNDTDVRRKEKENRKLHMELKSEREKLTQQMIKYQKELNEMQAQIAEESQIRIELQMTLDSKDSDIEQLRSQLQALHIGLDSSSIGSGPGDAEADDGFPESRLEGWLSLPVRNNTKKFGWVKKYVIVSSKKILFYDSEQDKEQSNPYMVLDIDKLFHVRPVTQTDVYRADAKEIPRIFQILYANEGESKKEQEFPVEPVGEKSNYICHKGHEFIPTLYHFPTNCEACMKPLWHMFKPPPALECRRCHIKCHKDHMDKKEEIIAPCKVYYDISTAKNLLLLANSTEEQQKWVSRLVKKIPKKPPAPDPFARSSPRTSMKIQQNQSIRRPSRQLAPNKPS
Chain of Mitogen-activated protein kinase 8 (P45983 whole entry): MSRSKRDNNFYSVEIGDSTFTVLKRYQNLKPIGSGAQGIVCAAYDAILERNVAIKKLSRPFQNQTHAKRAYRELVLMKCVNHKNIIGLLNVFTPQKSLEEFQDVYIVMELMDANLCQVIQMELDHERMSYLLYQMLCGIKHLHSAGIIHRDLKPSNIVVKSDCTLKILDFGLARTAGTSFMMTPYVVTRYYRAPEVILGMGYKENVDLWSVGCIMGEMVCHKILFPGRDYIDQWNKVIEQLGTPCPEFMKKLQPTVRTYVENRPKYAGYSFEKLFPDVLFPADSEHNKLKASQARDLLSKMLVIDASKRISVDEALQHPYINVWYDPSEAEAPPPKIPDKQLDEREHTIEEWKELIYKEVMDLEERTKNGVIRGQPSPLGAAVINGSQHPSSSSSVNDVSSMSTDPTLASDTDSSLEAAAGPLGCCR
Chain of Mitogen-activated protein kinase 14 (Q16539 whole entry): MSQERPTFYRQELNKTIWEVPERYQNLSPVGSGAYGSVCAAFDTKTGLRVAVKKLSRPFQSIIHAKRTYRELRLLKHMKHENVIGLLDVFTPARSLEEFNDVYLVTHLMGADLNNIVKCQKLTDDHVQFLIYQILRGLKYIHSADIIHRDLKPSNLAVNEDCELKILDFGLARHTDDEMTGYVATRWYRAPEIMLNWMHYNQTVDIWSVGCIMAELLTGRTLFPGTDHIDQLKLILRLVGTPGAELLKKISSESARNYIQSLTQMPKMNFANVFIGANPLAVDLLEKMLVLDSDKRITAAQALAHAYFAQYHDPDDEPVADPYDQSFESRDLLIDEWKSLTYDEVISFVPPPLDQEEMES

SMILES | pIC50 [1] | inhibition at 10 µM [2] | inhibition at 10 µM [3] | half-life [4] | pIC50 [5] | pIC50 [6] | pIC50 [7] | inhibition at 10 µM [8] | pIC50 [9] | inhibition at 10 µM [10] | pIC50 [11] | pIC50 [12] | pIC50 [13] | pIC50 [14]
NC(c1cccc(Cl)c1)c1nc2ccc(-c3cn[nH]c3)cc2c(=O)[nH]1 (centres undefined) | < 6.00 | 84% | 75% | 46 min | 7.89 | < 6.00 | < 6.00 | 18% | 7.82 | 89% | – | 7.04 | < 6.00 | < 6.00
COc1ccc([C@@H]2CN(C)C[C@H]2c2nc3ccc(-c4cn[nH]c4)cc3c(=O)[nH]2)cc1 | < 6.00 | 55% | -3% | 21 min | 8.30 | < 6.00 | < 6.00 | 0% | 7.89 | 66% | 7.59 | 7.52 | < 6.00 | < 6.00
CN(C)c1nc([C@@H]2CNC[C@H]2c2ccccc2)nc2ccc(-c3cn[nH]c3)cc12 | < 6.00 | 47% | 77% | 86 min | 8.60 | < 6.00 | < 6.00 | 49% | – | 88% | 6.55 | 6.10 | < 6.00 | < 6.00
COc1ccc(C(N)c2nc3ccc(-c4cn[nH]c4)cc3c(=O)[nH]2)cc1 (centres undefined) | < 6.00 | 37% | 40% | 64 min | 7.37 | < 6.00 | < 6.00 | -1% | 7.32 | 36% | 7.70 | – | < 6.00 | < 6.00
O=c1[nH]c([C@@H]2CNC[C@H]2c2ccc(Cl)cc2)nc2ccc(-c3cn[nH]c3)cc12 | < 6.00 | 34% | 30% | 75 min | > 9.00 | < 6.00 | < 6.00 | 65% | 9.00 | 75% | 8.70 | 7.64 | < 6.00 | < 6.00
NCc1ccc(C(=O)NC(c2ccc(Cl)cc2)c2nc3ccc(-c4cn[nH]c4)cc3c(=O)[nH]2)cc1 (centres undefined) | < 6.00 | 94% | 63% | 420 min | 7.74 | < 6.00 | < 6.00 | 90% | 7.66 | 96% | 7.02 | – | < 6.00 | < 6.00
N[C@@H](Cc1ccc(F)cc1)c1nc2ccc(-c3cn[nH]c3)cc2c(=O)[nH]1 | < 6.00 | 38% | 31% | 42 min | 8.05 | < 6.00 | < 6.00 | 12% | 7.77 | 89% | 7.80 | 6.52 | < 6.00 | < 6.00
COc1ccc(C[C@H](N)c2nc3ccc(-c4cn[nH]c4)cc3c(=O)[nH]2)cc1 | < 6.00 | 52% | 53% | 21 min | 8.40 | < 6.00 | < 6.00 | 10% | 7.80 | 76% | 8.10 | – | < 6.00 | < 6.00
O=c1[nH]c([C@@H]2CNC[C@H]2c2ccc(C(F)(F)F)cc2)nc2ccc(-c3cn[nH]c3)cc12 | – | – | – | – | 8.70 | – | – | – | – | – | 8.22 | – | – | –
CN(C)CC(=O)NC(c1ccc(Cl)cc1)c1nc2ccc(-c3cn[nH]c3)cc2c(=O)[nH]1 (centres undefined) | < 6.00 | 83% | 23% | 15 min | > 9.00 | < 6.00 | < 6.00 | 10% | > 9.00 | 55% | 8.15 | 6.30 | < 6.00 | < 6.00

More lines, in order of rising pIC50 [5], values ahead:

pIC50 [1] | inhibition at 10 µM [2] | inhibition at 10 µM [3] | half-life [4] | pIC50 [5] | pIC50 [6] | pIC50 [7] | inhibition at 10 µM [8] | pIC50 [9] | inhibition at 10 µM [10] | pIC50 [11] | pIC50 [12] | pIC50 [13] | pIC50 [14] | SMILES
– | – | – | – | 7.85 | – | – | – | – | – | 7.77 | – | – | – | CCN[C@H](Cc1ccc(Cl)cc1)c1nc2ccc(-c3cn[nH]c3)cc2c(=O)[nH]1
< 6.00 | 79% | 80% | 51 min | 8.10 | < 6.00 | < 6.00 | 54% | 8.10 | 63% | 7.96 | – | < 6.00 | < 6.00 | COc1cc(-c2cn[nH]c2)cc2c(=O)[nH]c(C(N)c3cccc(Cl)c3)nc12 (centres undefined)
< 6.00 | 36% | 37% | 65 min | 8.10 | < 6.00 | < 6.00 | 19% | 8.10 | 89% | 7.77 | – | < 6.00 | < 6.00 | N[C@H](Cc1ccc(F)cc1)c1nc2ccc(-c3cn[nH]c3)cc2c(=O)[nH]1
< 6.00 | 10% | 63% | 36 min | 8.15 | < 6.00 | < 6.00 | 34% | 8.15 | 57% | 7.62 | 6.33 | < 6.00 | < 6.00 | COc1cc(-c2cn[nH]c2)cc2c(=O)[nH]c([C@H](N)Cc3cccc(F)c3)nc12
– | – | – | – | 8.15 | – | – | – | – | – | 7.92 | – | – | – | N[C@H](Cc1ccc(F)c(F)c1)c1nc2ccc(-c3cn[nH]c3)cc2c(=O)[nH]1
< 6.00 | 54% | 42% | 47 min | 8.22 | < 6.00 | < 6.00 | 51% | – | 78% | 8.15 | 6.52 | < 6.00 | < 6.00 | N[C@@H](Cc1ccc(Cl)cc1)c1nc2ccc(-c3cn[nH]c3)cc2c(=O)[nH]1
< 6.00 | 5% | 19% | 35 min | 9.00 | < 6.00 | < 6.00 | 19% | 8.70 | 72% | 8.40 | 6.51 | < 6.00 | < 6.00 | O=c1[nH]c([C@@H]2CNC[C@H]2c2ccccc2)nc2ccc(-c3cn[nH]c3)cc12
